# Reference: PubChem BioAssay (NCI)
#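 How tested: cells in 96-well plates exposed to compound for 48 hours at five concentrations. Definition used: TGI = concentration required for complete inhibition of growth.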 Where a SMILES comes first, the peptide text is derived from it. [ ]: non-standard residue; d: D form. β3hI = CC[CH](C)[CH](N)CC(=O)O
# Legend:
# Experiment in all cases: NCI tumour cell line growth inhibition, 48 h
# CAKI-1 renal = tested on: CAKI-1 renal
# MCF7 breast = tested on: MCF7 breast
# MDA-N = tested on: MDA-N
# NCI-H522 lung = tested on: NCI-H522 lung
# DMS 114 small cell lung = tested on: DMS 114 small cell lung
# DMS 273 small cell lung = tested on: DMS 273 small cell lung
# HOP-18 NSCLC = tested on: HOP-18 NSCLC
# KM20L2 colon = tested on: KM20L2 colon
# LXFL 529 NSCLC = tested on: LXFL 529 NSCLC
# M19-MEL melanoma = tested on: M19-MEL melanoma
# SNB-78 CNS = tested on: SNB-78 CNS
# DLD-1 colon = tested on: DLD-1 colon
# XF 498 CNS = tested on: XF 498 CNS
Structure (SMILES),TGI (CAKI-1 renal) [µM],TGI (MCF7 breast) [µM],TGI (MDA-N) [µM],TGI (NCI-H522 lung) [µM],also measured
Cc1cc(C)c2c(=O)n(CN3CCC(O)(c4ccccc4)CC3)sc2n1,> 100,> 100,38.3,24.2,–
CCOP(=O)(C=C=C(C)C)OCC,> 100,> 100,> 100,> 100,–
CC(C)NCC(O)c1ccc(OCc2ccccc2)c(OCc2ccccc2)c1-c1ccccc1 (stereo unspecified),3.18,3.22,3.1,3.16,–
COc1cc([C@@H]2c3[nH]c4ccccc4c3C(Nc3ccc([N+](=O)[O-])cc3)[C@H]3COC(=O)N23)cc(OC)c1O (stereo partly specified),2.11,0.624,2.81,1.97,–
CCOC(=O)CCC(NC(=O)c1ccc(Nc2nc3ccccc3nc2-c2cccs2)cc1)C(=O)OCC (stereo unspecified),> 100,> 100,> 100,–,–
CCOC(=O)CCC(NC(=O)Cc1ccc(Oc2nc3ccccc3nc2-c2cccs2)cc1)C(=O)OCC (stereo unspecified),> 100,> 100,–,> 100,–
Cc1[nH]c(=O)nc(NCCNCCO)c1C(=O)Nc1c2ccccc2nc2ccccc12,> 100,> 100,> 100,> 100,–
O=C(NCCO)Nc1c(C(F)(F)F)cc(-c2ccccc2)[nH]c1=O,> 100,> 100,> 100,–,–
CN(C1=NCCO1)c1cccc2c1CCCC2,> 10,> 10,> 10,> 10,–
O=C1CC2(CCNCC2)C(=O)N1N1CCCC1,> 100,> 100,> 100,> 100,–
O=c1oc2ccc3ccccc3c2cc1-c1nc2ccccc2o1,40.8,20.5,> 54.4,59.4,–
O=C(O)CC/C(=N\Nc1nsc2ccccc12)c1ccc(Cl)cc1,52.2,> 100,> 100,> 100,TGI (DMS 114 small cell lung): > 100 µM; TGI (DMS 273 small cell lung): 41.2 µM; TGI (HOP-18 NSCLC): 52 µM; TGI (KM20L2 colon): > 100 µM; TGI (LXFL 529 NSCLC): 41.1 µM; TGI (M19-MEL melanoma): > 100 µM; TGI (SNB-78 CNS): > 100 µM
O=S(CCCl)c1c2ccccc2nc2ccccc12 (stereo unspecified),80.5,> 100,> 100,35.6,–
NS(=O)(=O)c1ccc(CNc2nc(-c3cccs3)nc3ccc(I)cc23)cc1,22.8,16.1,41.9,28.2,–
O=[N+]([O-])c1cc(Cl)cc2cc(Cl)cnc12,> 100,–,–,> 100,–
CCOC(=O)c1[nH]c2ccccc2c1C(=O)C[C@H](NC(=O)C(F)(F)F)C(=O)OC,> 100,> 100,> 100,> 100,–
COC(=O)CCn1cnc2c(SC)ncnc21,> 100,> 100,> 100,> 100,–

Structure (SMILES),TGI (CAKI-1 renal) [µM],TGI (MCF7 breast) [µM],TGI (MDA-N) [µM],TGI (NCI-H522 lung) [µM],also measured
CCOC(=O)c1c(-c2ccc(OC)cc2)c(C#N)c(=S)n(C2OC(CO)C(O)C(O)C2O)c1-c1ccccc1 (stereo unspecified),> 100,> 100,> 100,–,–
COc1cc2c(c3c1c(=O)c1ccccc1n3C)C=CC1(CCCCC1)O2,> 2.29,> 9.55,8.08,> 10,–
Cc1n[nH]c(=O)n1/N=C/c1c[nH]c2ccccc12,> 100,> 100,–,> 100,–
CCCCCCCC/C=C\CCCCCCCC(=O)NCCN(CCN)C(=O)CCCCCCC/C=C\CCCCCCCC,> 100,–,–,–,TGI (DLD-1 colon): > 100 µM; TGI (DMS 114 small cell lung): > 100 µM; TGI (DMS 273 small cell lung): > 100 µM; TGI (HOP-18 NSCLC): > 100 µM; TGI (KM20L2 colon): > 100 µM; TGI (LXFL 529 NSCLC): > 100 µM; TGI (M19-MEL melanoma): > 100 µM
N#CCCN(CCC#N)c1ccc(/C=C2\N=C(c3ccccc3)N(c3ccccn3)C2=O)cc1,> 100,> 100,> 100,–,–
CCC(C)C(CC(=O)N1CCCC1C(=O)NC(C(=O)NC(C(=O)NCC(=O)NC(CC(N)=O)C(=O)NC(C(=O)NC(C(=O)NC(CCCCN)C(N)=O)C(C)CC)C(C)CC)C(C)C)C(C)CC)NC(=O)C(N)C(C)CC (stereo not drawn) (H-I[β3hI]PIVGNIIK-NH2; configuration not given here),> 50,> 50,> 50,> 50,–
CC1CCC2C(C(=O)O[C@H]3C4CCO[C@@H](OC5OC(CO)C(O)C(O)C5O)C4[C@@]4(CO)O[C@@H]34)=CO[C@@H](OC3OC(CO)C(O)C(O)C3O)C12 (stereo partly specified),–,> 10,> 10,–,–
CCCCn1c2c(n(CCCC)c1=S)-c1c(n(CCCC)c(=S)n1CCCC)SSSS2,–,> 100,23.2,0.274,–
S=C(S)N1CCN(c2ccc(Cl)c(Cl)c2)CC1,59.8,70.9,35,50.1,–
COc1cc([N+](=O)[O-])ccc1NC1=CC(=O)CCC1,> 100,> 100,> 100,–,–
CC(C)n1c2c([n+](C)c1/C=C/c1ccccc1)C(=O)c1ccccc1C2=O,12.4,0.214,0.686,0.15,TGI (DLD-1 colon): 3.79 µM; TGI (DMS 114 small cell lung): 0.0439 µM; TGI (DMS 273 small cell lung): 0.341 µM; TGI (KM20L2 colon): 1.31 µM; TGI (LXFL 529 NSCLC): 0.788 µM; TGI (M19-MEL melanoma): 0.321 µM; TGI (SNB-78 CNS): 0.413 µM
CC(CO)C1=CC(C#CCOCc2ccccc2)N(C(=O)Oc2ccccc2)c2ccccc21 (stereo unspecified),76.1,–,> 100,37.3,–
COc1cccc(N2C(=O)CSC2c2cc(OC)c(OC)c(OC)c2)c1 (stereo unspecified),> 100,> 100,37.1,90.4,–
N/N=C1\CCCc2c1no[n+]2[O-],> 100,> 100,> 100,> 100,–
CC(C)NC(=O)OCCN=C1c2ccccc2CCc2ccccc21,> 100,57.5,39.8,–,–
CN(C)c1ccc(/C=C(\NC(=O)c2ccccc2)C(=O)NC(CCC(=O)O)C(=O)O)cc1 (stereo unspecified),> 100,> 100,> 100,> 100,–
COC(=O)C(Cl)=C1CC1,32.6,–,–,33.9,TGI (DLD-1 colon): 64.1 µM; TGI (DMS 114 small cell lung): 95.6 µM; TGI (DMS 273 small cell lung): > 100 µM; TGI (KM20L2 colon): > 100 µM; TGI (LXFL 529 NSCLC): 29.5 µM; TGI (M19-MEL melanoma): > 100 µM; TGI (SNB-78 CNS): > 100 µM; TGI (XF 498 CNS): 88.7 µM
